Test [1] relates to DNA. Put plainly: Binding affinity to calf thymus DNA at 2 uM by thermal denaturation study. The format is nucleic-acid assay. The settings on record: Bos taurus.
Test [2] has as its system Escherichia phage T7. As to the kind of experiment: Inhibition of T7 RNA polymerase transcription at 5 uM after irradiation. Type of test: functional.
The test system of test [3] is Escherichia phage T7. Put plainly: Inhibition of T7 RNA polymerase transcription at 10 uM after irradiation. The format is functional.
Test [4] deals with Escherichia coli. As to the kind of experiment: Induction of pBR322 DNA interstand cross link at pH 7.7 by agarose gel electrophoresis assay.
The test system of test [5] is Escherichia coli. As to the kind of experiment: Induction of pBR322 DNA interstand cross link at 100 uM by agarose gel electrophoresis assay.
The subject of test [6] is Escherichia coli. Put plainly: Induction of pBR322 DNA interstand cross link at 5 uM by agarose gel electrophoresis assay.
The subject of test [7] is Escherichia coli. Put plainly: Induction of pBR322 DNA interstand cross link at 1 uM by agarose gel electrophoresis assay.
For test [8], the system named is Escherichia phage T7. Put plainly: Inhibition of T7 RNA polymerase transcription at 20 uM after irradiation. Type of test: functional.

Molecules are shown by their SMILES. Calls of active or inactive are those of the source. The rule behind the calls is not given here.

The ΔTm is the shift of the melting midpoint relative to a reference. Take `COc1cc2nc(Cl)nc(Nc3ccc(O)c(C[N+](C)(C)C)c3)c2cc1OC`: in test [1], the ΔTm stood at 5.8 °C. For the same compound, the result in test [2] and in test [3] was Active.

With `COc1cc2nc(Nc3ccc(O)c(C[N+](C)(C)C)c3)nc(Nc3ccc(O)c(C[N+](C)(C)C)c3)c2cc1OC`, the outcome in test [4], in test [5], in test [2] and in test [3] was Active. Further, in test [1], the ΔTm is 8.6 °C. In addition, the Activity in test [6] came out at 46%; in test [7] it was 28%.

On to `C[N+](C)(C)Cc1cc(CCC(=O)NCCNC(=O)CCc2ccc(O)c(C[N+](C)(C)C)c2)ccc1O`, for which the ΔTm in test [1] stood at 0.5 °C. Besides, the result in test [5] and in test [8] was inactive.

As for `COc1cc2nc(Nc3ccc(O)c(C[N+](C)(C)C)c3)nc(N)c2cc1OC`, the ΔTm in test [1] came out at 7.4 °C. In addition, the outcome in test [2] and in test [3] was Active.
